Data published in ChEMBL document CHEMBL5291721, “A preclinical secondary pharmacology resource illuminates target-adverse drug reaction associations of marketed drugs” (Nat Commun, 2023).
*1 amine or outer side, *2 acyl side, *3 side chain or, on linkers, in order; H or OH if unused. Where a SMILES comes first, the peptide text is derived from it. Bridges are numbered along the chain shown (N, C = ends). [ ]: non-standard residue; d: D form. The star is where a group is joined. hTyr(3S-OH,4S-OH,3'-OSO3H) = N[C@H](C(=O)O)[C@H](O)[C@@H](O)c1ccc(O)c(OS(=O)(=O)O)c1; Orn(4R-OH,5R-OH) = O=C([C@H](C[C@@H](O)[C@@H](O)N[*:3])N[*:1])[*:2]; Pro(3S-OH,4S-Me) = C[C@H]1CN[C@H](C(=O)O)[C@H]1O; X1 = CCCCCOc1ccc(-c2cc(-c3ccc(C(=O)*)cc3)no2)cc1; Gln(3R-OH) = NC(=O)C[C@@H](O)[C@H](N)C(=O)O; Hyp = O=C(O)[C@@H]1C[C@@H](O)CN1

Columns and labels:
[1] = target: Gamma-aminobutyric acid receptor subunit alpha-1 (Rattus norvegicus, UniProt P62813)
Vasopressin V2 receptor = Vasopressin V2 receptor (Homo sapiens, UniProt P30518)
Adenosine receptor A3 = target: T1, Adenosine receptor A3 (Homo sapiens, UniProt P0DMS8)
T1 sequence (P0DMS8 whole entry): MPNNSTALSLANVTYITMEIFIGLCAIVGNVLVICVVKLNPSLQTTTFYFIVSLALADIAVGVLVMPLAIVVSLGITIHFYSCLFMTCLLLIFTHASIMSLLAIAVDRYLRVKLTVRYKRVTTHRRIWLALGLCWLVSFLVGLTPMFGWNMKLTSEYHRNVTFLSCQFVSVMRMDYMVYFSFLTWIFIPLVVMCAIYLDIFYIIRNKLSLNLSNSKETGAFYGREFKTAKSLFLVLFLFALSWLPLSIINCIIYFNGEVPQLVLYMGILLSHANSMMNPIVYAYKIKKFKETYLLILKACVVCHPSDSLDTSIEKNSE

[2] = target: cGMP-inhibited 3',5'-cyclic phosphodiesterase 3A (Homo sapiens, UniProt Q14432); format: functional
[3] = target: T2, Muscarinic acetylcholine receptor M1 (Homo sapiens, UniProt P11229); format: functional
T2 sequence (P11229 whole entry): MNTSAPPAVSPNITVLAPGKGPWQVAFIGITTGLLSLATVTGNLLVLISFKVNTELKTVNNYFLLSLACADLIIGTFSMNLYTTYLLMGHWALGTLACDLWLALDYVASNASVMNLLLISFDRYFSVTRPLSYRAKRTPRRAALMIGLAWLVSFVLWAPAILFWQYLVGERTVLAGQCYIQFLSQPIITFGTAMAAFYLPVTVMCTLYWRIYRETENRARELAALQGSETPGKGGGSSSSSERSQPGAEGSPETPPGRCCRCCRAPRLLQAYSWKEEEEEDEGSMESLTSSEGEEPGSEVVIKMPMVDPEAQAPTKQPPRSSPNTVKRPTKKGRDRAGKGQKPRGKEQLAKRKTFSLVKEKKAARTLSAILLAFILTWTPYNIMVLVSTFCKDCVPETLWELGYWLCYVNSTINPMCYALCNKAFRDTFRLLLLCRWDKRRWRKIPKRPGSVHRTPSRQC

[4] = target: T3, 5-hydroxytryptamine receptor 3A (Homo sapiens, UniProt P46098); format: functional
T3 sequence (P46098 whole entry): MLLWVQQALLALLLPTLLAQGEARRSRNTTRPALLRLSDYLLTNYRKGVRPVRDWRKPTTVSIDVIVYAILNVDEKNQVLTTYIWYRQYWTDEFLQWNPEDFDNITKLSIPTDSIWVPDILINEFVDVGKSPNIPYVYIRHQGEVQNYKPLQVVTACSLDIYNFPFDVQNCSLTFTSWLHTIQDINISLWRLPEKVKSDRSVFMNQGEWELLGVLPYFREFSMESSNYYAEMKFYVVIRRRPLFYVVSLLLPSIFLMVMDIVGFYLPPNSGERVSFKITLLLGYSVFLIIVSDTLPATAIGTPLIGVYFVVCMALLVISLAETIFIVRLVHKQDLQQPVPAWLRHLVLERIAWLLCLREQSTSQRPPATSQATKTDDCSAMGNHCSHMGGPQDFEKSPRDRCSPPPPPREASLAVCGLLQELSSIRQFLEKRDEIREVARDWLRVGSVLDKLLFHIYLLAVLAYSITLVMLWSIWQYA

Motilin receptor = Motilin receptor (Homo sapiens, UniProt O43193)
Endothelin-1 receptor = target: T4, Endothelin-1 receptor (Homo sapiens, UniProt P25101)
T4 sequence (P25101 whole entry): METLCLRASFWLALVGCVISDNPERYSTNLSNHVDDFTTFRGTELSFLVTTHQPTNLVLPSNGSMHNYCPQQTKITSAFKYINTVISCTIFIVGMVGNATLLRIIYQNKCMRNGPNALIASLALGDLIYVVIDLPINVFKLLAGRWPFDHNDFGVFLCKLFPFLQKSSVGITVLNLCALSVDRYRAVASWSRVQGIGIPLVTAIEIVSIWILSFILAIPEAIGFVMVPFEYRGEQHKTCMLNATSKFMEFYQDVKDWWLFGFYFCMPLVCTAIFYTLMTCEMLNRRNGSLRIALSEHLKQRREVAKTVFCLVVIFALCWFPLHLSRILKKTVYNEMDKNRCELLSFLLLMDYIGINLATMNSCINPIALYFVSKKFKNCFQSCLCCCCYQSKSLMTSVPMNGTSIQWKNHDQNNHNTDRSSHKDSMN

[5] = target: T5, Alpha-2A adrenergic receptor (Homo sapiens, UniProt P08913); format: functional, cell-based
T5 sequence (P08913 whole entry): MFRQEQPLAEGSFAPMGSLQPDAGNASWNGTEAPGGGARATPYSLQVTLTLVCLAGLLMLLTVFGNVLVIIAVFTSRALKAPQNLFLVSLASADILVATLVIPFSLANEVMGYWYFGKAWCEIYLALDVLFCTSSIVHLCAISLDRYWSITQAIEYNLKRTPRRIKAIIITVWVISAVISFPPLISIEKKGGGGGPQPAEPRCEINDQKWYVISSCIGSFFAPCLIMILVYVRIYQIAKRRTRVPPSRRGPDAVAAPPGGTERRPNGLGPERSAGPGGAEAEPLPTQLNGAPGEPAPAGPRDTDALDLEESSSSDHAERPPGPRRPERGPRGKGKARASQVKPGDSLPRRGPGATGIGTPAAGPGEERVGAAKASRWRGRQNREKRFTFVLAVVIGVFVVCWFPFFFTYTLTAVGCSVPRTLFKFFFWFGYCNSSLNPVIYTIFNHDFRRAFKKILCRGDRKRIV
Note: assay procedure not described here.

cGMP-inhibited 3',5'-cyclic phosphodiesterase 3A, sequence (Q14432 whole entry): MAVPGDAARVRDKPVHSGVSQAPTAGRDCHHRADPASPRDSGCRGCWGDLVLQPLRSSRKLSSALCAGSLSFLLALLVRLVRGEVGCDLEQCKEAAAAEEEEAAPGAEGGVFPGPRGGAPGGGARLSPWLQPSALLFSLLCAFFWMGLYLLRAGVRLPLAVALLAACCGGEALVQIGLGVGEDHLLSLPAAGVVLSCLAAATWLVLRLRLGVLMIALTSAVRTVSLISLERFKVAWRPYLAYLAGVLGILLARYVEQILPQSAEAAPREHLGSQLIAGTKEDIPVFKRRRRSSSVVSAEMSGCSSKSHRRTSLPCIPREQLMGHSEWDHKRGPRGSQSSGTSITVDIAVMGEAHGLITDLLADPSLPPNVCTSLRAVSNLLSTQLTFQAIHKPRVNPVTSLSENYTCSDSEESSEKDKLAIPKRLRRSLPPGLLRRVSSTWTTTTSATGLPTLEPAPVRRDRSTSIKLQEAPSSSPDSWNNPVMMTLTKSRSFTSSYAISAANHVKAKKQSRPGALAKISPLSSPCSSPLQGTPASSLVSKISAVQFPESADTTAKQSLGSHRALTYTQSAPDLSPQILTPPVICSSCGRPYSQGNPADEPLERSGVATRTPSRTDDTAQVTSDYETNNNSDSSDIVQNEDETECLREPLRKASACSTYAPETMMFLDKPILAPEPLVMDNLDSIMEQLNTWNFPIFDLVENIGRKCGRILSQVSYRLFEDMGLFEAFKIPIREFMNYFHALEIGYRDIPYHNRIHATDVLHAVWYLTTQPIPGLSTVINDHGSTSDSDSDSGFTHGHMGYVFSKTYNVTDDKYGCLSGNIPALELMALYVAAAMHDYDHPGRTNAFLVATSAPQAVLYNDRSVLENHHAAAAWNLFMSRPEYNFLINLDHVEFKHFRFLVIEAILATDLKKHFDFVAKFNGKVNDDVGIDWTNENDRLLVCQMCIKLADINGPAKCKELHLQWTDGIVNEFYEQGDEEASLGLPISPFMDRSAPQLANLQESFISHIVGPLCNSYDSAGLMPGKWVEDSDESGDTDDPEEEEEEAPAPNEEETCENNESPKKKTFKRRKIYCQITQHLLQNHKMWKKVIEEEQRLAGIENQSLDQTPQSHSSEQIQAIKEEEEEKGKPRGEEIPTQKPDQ
Motilin receptor, sequence (O43193 whole entry): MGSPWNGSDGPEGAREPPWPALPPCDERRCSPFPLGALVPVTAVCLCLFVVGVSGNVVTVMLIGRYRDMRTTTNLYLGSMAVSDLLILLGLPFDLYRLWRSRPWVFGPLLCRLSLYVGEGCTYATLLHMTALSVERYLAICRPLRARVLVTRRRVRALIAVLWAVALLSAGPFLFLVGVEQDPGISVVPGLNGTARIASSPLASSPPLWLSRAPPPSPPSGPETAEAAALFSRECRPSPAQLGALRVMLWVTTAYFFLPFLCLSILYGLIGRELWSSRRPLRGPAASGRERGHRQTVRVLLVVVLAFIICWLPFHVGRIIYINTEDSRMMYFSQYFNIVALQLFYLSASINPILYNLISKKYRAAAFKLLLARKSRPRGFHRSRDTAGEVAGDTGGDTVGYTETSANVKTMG
Vasopressin V2 receptor, sequence (P30518 whole entry): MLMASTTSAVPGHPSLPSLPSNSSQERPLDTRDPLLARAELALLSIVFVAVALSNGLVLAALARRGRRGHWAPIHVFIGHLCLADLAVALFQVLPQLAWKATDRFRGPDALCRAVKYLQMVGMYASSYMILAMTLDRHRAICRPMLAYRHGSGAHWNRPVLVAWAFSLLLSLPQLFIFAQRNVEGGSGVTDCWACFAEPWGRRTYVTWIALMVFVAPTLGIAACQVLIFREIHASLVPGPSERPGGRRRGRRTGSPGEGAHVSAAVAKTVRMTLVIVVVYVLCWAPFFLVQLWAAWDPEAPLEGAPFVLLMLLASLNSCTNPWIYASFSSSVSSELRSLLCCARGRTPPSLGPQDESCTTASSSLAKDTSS
Gamma-aminobutyric acid receptor subunit alpha-1, sequence (P62813 whole entry): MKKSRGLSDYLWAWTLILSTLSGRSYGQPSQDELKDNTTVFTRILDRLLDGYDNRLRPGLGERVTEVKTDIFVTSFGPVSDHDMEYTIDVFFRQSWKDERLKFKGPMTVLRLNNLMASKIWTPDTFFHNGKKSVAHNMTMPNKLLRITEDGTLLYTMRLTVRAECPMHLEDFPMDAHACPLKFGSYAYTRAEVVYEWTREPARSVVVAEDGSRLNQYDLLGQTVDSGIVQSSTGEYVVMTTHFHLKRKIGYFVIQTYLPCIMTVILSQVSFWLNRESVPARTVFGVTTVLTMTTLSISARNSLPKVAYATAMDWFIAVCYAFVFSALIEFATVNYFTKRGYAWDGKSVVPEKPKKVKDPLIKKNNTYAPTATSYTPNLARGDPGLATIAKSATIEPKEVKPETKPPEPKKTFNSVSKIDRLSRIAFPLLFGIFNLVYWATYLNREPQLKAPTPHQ

| SMILES | AC50 [1] [µM] | AC50 (Vasopressin V2 receptor) [µM] | AC50 (Adenosine receptor A3) [µM] | AC50 [2] [µM] | AC50 [3] [µM] | AC50 [4] [µM] | AC50 (Motilin receptor) [µM] | AC50 (Endothelin-1 receptor) [µM] | AC50 [5] [µM] |
| --- | --- | --- | --- | --- | --- | --- | --- | --- | --- |
| C=C1c2c(Cl)ccc(O)c2C(=O)C2=C(O)[C@]3(O)C(=O)C(C(N)=O)=C(O)[C@@H](N(C)C)[C@@H]3[C@@H](O)[C@H]12 [MECLOCYCLINE] | > 30 | – | – | – | – | – | – | – | – |
| CCCCCOc1ccc(-c2cc(-c3ccc(C(=O)N[C@H]4C[C@@H](O)[C@@H](O)NC(=O)[C@@H]5[C@@H](O)[C@@H](C)CN5C(=O)[C@H]([C@H](O)CC(N)=O)NC(=O)[C@H]([C@H](O)[C@@H](O)c5ccc(O)c(OS(=O)(=O)O)c5)NC(=O)[C@@H]5C[C@@H](O)CN5C(=O)[C@H]([C@@H](C)O)NC4=O)cc3)no2)cc1 [MICAFUNGIN] (X1-[Orn(4R-OH,5R-OH)]T[Hyp][hTyr(3S-OH,4S-OH,3'-OSO3H)][Gln(3R-OH)][Pro(3S-OH,4S-Me)]; lactam 1-C) | > 30 | – | – | – | – | – | – | – | – |
| CC(=O)Oc1ccccc1C(=O)Nc1ncc([N+](=O)[O-])s1 [NITAZOXANIDE] | – | 14 | 5 | > 30 | > 30 | 3.1 | 13 | 12 | > 30 |
| C#C[C@]1(O)CC[C@H]2[C@@H]3CCC4=C(CCC(=O)C4)[C@H]3CC[C@@]21C [NORETHYNODREL] | > 30 | – | – | – | – | – | – | – | – |
| CC(C)COc1ccc(CNC(=O)N(Cc2ccc(F)cc2)C2CCN(C)CC2)cc1 [PIMAVANSERIN] | > 30 | – | – | – | – | – | – | – | – |
| CC(C)C[C@H](CN)CC(=O)O [PREGABALIN] | – | > 30 | > 30 | > 30 | > 30 | > 30 | > 30 | > 30 | > 30 |
| CNC(=O)c1cc(Oc2ccc(NC(=O)Nc3ccc(Cl)c(C(F)(F)F)c3)c(F)c2)ccn1 [REGORAFENIB] | > 30 | – | 2.51 | > 30 | > 30 | – | – | – | – |
| CCOc1cc(CC(=O)N[C@@H](CC(C)C)c2ccccc2N2CCCCC2)ccc1C(=O)O [REPAGLINIDE] | – | – | 22 | > 30 | > 30 | > 30 | > 30 | > 30 | > 30 |
| O=C(Nc1c(Cl)cncc1Cl)c1ccc(OC(F)F)c(OCC2CC2)c1 [ROFLUMILAST] | – | > 30 | > 30 | > 30 | > 30 | > 30 | > 30 | > 30 | > 30 |
| CCCN(CCC)CCc1cccc2c1CC(=O)N2 [ROPINIROLE] | – | > 30 | > 30 | > 30 | > 30 | > 30 | > 30 | > 30 | > 30 |
| CCCN(CCc1cccs1)[C@H]1CCc2c(O)cccc2C1 [ROTIGOTINE] | – | – | 24 | > 30 | 25 | > 30 | > 30 | > 30 | 3.7 |
| CC(C)N(CCCCOCC(=O)NS(C)(=O)=O)c1cnc(-c2ccccc2)c(-c2ccccc2)n1 [SELEXIPAG] | – | > 30 | 7.89 | > 30 | > 30 | > 30 | > 30 | > 30 | > 30 |
| CCCCNc1ccc(C(=O)OCCN(C)C)cc1 [TETRACAINE] | > 30 | > 30 | > 30 | > 30 | – | > 10 | > 10 | > 30 | > 10 |
| Cn1c(=O)c2[nH]cnc2n(C)c1=O [THEOPHYLLINE] | > 30 | > 30 | – | – | – | > 30 | > 10 | > 30 | > 10 |
| NCCc1ccc(O)cc1 [TYRAMINE] | > 30 | – | – | – | – | – | – | – | – |
| Cc1cc(CC(=O)O)n(C)c1C(=O)c1ccc(Cl)cc1 [ZOMEPIRAC] | – | > 30 | > 30 | > 30 | > 30 | > 30 | > 30 | > 30 | > 30 |
